One block for each substance: values may come before it.
Columns and labels:
opsin = molecular target: T1, opsin (Bos taurus, UniProt P02699); assay: Photoisomerization (bleaching) of 11-cis-7-ring-retinals in solution and bound to opsin
T1 construct: Preparation of rod outer segment, opsin, rhodopsin regeneration with retinals; from tissue; host or cells: rod outer segments
Method: Preparation of rod outer segment, opsin, rhodopsin regeneration with retinals, and purification of rhodopsin on a concanavalin A-Sepharose 4B column were conducted as described previously (Jang et al., J. Biol. Chem. 276:26148-53 (2001)).

rhodopsin = molecular target: T2, rhodopsin (Bos taurus, UniProt P02699); assay: FTIR spectroscopy of regenerated rhodopsin; format: biochemical; settings: for FTIR difference spectra of regenerated rhodopsin upon photoactivation: 7-ring analogs
T2 construct: Opsin membranes (24 μM) (Sachs et al., J. Biol. Chem. 275:6189-94 (2000)); from tissue; rod outer segment membranes by inference
T2 sequence (P02699 whole entry): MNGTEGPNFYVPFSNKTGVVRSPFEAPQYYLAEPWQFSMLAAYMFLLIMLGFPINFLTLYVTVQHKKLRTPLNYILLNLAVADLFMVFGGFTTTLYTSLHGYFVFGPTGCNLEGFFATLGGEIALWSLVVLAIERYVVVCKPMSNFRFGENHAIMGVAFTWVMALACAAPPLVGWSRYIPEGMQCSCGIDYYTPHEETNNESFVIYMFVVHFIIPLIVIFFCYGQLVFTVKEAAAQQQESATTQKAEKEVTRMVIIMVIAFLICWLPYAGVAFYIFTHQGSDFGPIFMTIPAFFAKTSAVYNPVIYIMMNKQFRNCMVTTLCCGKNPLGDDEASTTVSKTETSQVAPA
Method: Opsin membranes (24 μM) (Sachs et al., J. Biol. Chem. 275:6189-94 (2000)) were incubated overnight with 240 μM 11-cis-retinal or with the mixture of either 11-cis-6-ring- or 11-cis-7-ring-retinal isomers in the BTP buffer (20 mM BTP, pH 7.5, containing 1 mM MgCl2 and 130 mM NaCl). Suspensions of membranes were centrifuged for 25 minutes at 100,000×g and resuspended in the BTP buffer to yield 2.2 mM rhodopsin (from absorption at 500 nm). […] For H2O/D2O exchange, the pellet was resuspended three times in deuterated buffer. The buffer solution was removed, and the pellet transferred to a 30-mm-diameter temperature-controlled transmission cell with two BaF2 windows and a 3 μm polytetrafluoroethylen gasket. The spectra were recorded using a Bruker ifs 66-V spectrometer (Bard et al., FEBS Lett. 473:259-64 (2000)). For all samples, Meta II minus rhodopsin difference spectra were produced.

rhodopsin kinase = assay: Phosphorylation of regenerated rhodopsin by rhodopsin kinase; format: biochemical; settings: in vitro
Method: Regenerated rhodopsin (2 mg/ml) was mixed in 100 μl of 100 mM sodium phosphate buffer, pH 7.2, containing 5 mM MgCl2, 0.5 mM [^32P]ATP (approximately 35,000 to approximately 50,000 cpm/nmol) and purified rhodopsin kinase (approximately 5 μg of protein), and the assay was carried out as described previously (Palczewski et al., J. Biol. Chem. 266:1294955 (1991)). Studies were performed in triplicate.

Gt = assay: Kinetic light scattering (Gt activation); format: biochemical
Method: Light-scattering changes were measured as previously described (Heck et al., Methods Enzymol. 315:32947 (2000)). Measurements were performed in 10-mm path cuvettes with 300-μl volumes in isotonic buffer (20 mM BTP, 130 mM NaCl, and 1 mM MgCl2, pH 6.4, as indicated in the legend to FIG. 6) at 22° C. with a 5-ms dwell time of the A/D converter (Nicolet 400, Madison, Wis.). Samples contained membrane suspension (3 μM rhodopsin) reconstituted with purified Gt (0.8 μM) and 1 mM GTP. Reactions were triggered by flash photolysis of rhodopsin with a green (500±20 nm) flash attenuated by appropriate neutral density filters. The flash intensity was quantified photometrically by the amount of rhodopsin bleached and expressed in terms of the mole fraction of photoexcited rhodopsin (Rh*/Rh).

Rpe65−/− mice [1] = assay: In vivo regeneration of rhodopsin with 6- and 7-ring isomers; design: species or system mouse
Description: All animal studies employed procedures approved by the University of Washington Animal Care Committee and conformed to recommendations of the American Veterinary Medical Association Panel on Euthanasia. All animals were maintained in complete darkness, and all manipulations were done under dim red light employing a Kodak No. 1 Safelight filter (transmittance >560 nm). Typically, 2-3-month-old mice were used in all studies. RPE65-deficient mice were obtained from M. Redmond (National Eye Institute, National Institutes of Health. Bethesda, Md.) and genotyped as described previously (Redmond et al., Nat. Genet. 20:344-51 (1998; Redmond et al. Methods Enzymol. 316:705-24 (2000)).
All procedures were performed under dim red light as described previously (Van Hooser et al., Proc. Natl. Acad. Sci. USA 97:862328 (2000); Jang. et al., J. Biol. Chem. 276:3245665 (2001); Palczewski et al., Biochemistry 38:12012-19 (1999)).

Rpe65−/− mice [2] = system: Rpe65−/− mice
Method: Mice were anesthetized by intraperitoneal injection with 15 μl/g body weight of 6 mg/ml ketamine and 0.44 mg/ml xylazine diluted with 10 mM phosphate buffer, pH 7.2, containing 100 mM NaCl. The pupils were dilated with 1% tropicamide. A contact lens electrode was placed on the eye with a drop of methylcellulose, and a ground electrode (a reference electrode) was placed in the ear. ERGs were recorded with the universal testing and electrophysiologic system 3000 (UTAS E-3000) (LKC Technologies, Inc.). The mice were placed in a Ganzfield chamber, and responses to flash stimuli were obtained from both eyes simultaneously. […] Two to four recordings were made with >10-second intervals. Typically, 4-8 animals were used for recording of each point in all conditions. All ERG measurements were done within 10-40 minutes after anesthesia.

T1 sequence (P02699 whole entry): as above

Substance: 9,11,13-tri-cis-7-ring retinal [isomer 1]
abundance in isomer mixture after bleaching (opsin; bleaching 7-ring-retinoids in solution): least abundant isomer
FTIR difference spectra of regenerated rhodopsin upon photoactivation (rhodopsin): only minor changes in the difference spectra

activity in phosphorylation assay with purified rhodopsin kinase (rhodopsin kinase): inactive
Substance: 11-cis-7-ring-rhodopsin: rhodopsin regenerated with 11-cis-7-ring-retinal

Substance: 9,11-di-cis-7-ring retinal [isomer 4]
FTIR difference spectra of regenerated rhodopsin upon photoactivation (rhodopsin): only minor changes in the difference spectra

pKa of the light-induced active species (rhodopsin): 6.7
Substance: Meta II: catalytically active rhodopsin intermediate containing all-trans-retinal bound to Lys296 of opsin [reference compound]

Substance: 11-cis-6-ring-retinal
sensitivity of activity to hydroxylamine (Gt): sensitive to hydroxylamine
intensity of activating light flash needed for Gt activation rates comparable to wild-type rhodopsin (Gt; membranes with regenerated rhodopsin): 1350 fold
pH dependence of Gt activation (Gt; pH 6.4 vs 7.4): enhanced at acidic pH
isomeric products in visual pigment after injection of isomer mixture (Rpe65−/− mice [1]): three isomers
activity of rhodopsin regenerated in vivo (Rpe65−/− mice [2]; Rpe65−/− mice): active at higher bleaches
ERG activity (a- and b-wave) compared with Me2SO (Rpe65−/− mice [2]; mouse, in vivo): clearly elevated

Substance: 11-cis-7-ring retinal [isomer 3]
activity relative to wild-type (Gt; regenerated rhodopsin): 0.10%
isomerization when bound to opsin (opsin): most stable to isomerization
regeneration of opsin in vivo (Rpe65−/− mice [1]): readily and preferentially regenerated
FTIR difference spectra of regenerated rhodopsin upon photoactivation (rhodopsin): inactive

Substance: 11,13-di-cis-7-ring retinal [isomer 2]
isomerization when bound to opsin (opsin): converts readily to isomer 3 even in the dark
FTIR difference spectra of regenerated rhodopsin upon photoactivation (rhodopsin): inactive

pKa of the light-induced active species (rhodopsin): 5.4
FTIR: activity after bleaching (rhodopsin; pH 7.5): only residual activity
Substance: 11-cis-6-ring-rhodopsin: rhodopsin regenerated with 11-cis-6-ring-retinal (2-carbon bridge)
activity relative to the 7-locked pigment (Gt): markedly higher
FTIR: photoproduct after bleaching (rhodopsin; pH 4.5): Meta II-like product that is able to bind Gt-(340-350) derived peptide

Source: patent US8962691B2, “Retinoid replacements and opsin agonists and methods for the use thereof” (University of Washington, priority 2003, dated 2015)
